From the kinase profiling compilation of Christmann-Franck et al. (2016)

Biological target: STK16 (human) (UniProt O75716)
Test: radiometric filter-binding kinase assay, Kinase HotSpot
Details: compound 0.5 µM; ATP 10 µM

| SMILES | residual activity [%] |
| --- | --- |
| CCc1nc(-c2ccc(OC)cc2)[nH]c1-c1ccncc1 | 108 |
| O=c1cc(N2CCOCC2)oc2c(-c3ccccc3)cccc12 | 97.5 |
| N#CCCc1ccc2c(c1)-c1[nH]c3ccc([N+](=O)[O-])cc3c1CC(=O)N2 | 87 |
| c1ccc(-c2cnc(Nc3ccc(OCCN4CCCC4)cc3)s2)cc1 | 92 |

Biological target: FGR (human) (UniProt P09769)
Test: as above
Details: compound 0.5 µM; ATP 10 µM

| SMILES | residual activity [%] |
| --- | --- |
| CCc1nc(-c2ccc(OC)cc2)[nH]c1-c1ccncc1 | 97.2 |
| O=c1cc(N2CCOCC2)oc2c(-c3ccccc3)cccc12 | 97.5 |
| N#CCCc1ccc2c(c1)-c1[nH]c3ccc([N+](=O)[O-])cc3c1CC(=O)N2 | 31 |
| c1ccc(-c2cnc(Nc3ccc(OCCN4CCCC4)cc3)s2)cc1 | 65.7 |

Biological target: PRKCG (human) (UniProt P05129)
Test: as above
Details: compound 0.5 µM; ATP 10 µM

| SMILES | residual activity [%] |
| --- | --- |
| CCc1nc(-c2ccc(OC)cc2)[nH]c1-c1ccncc1 | 95.5 |
| O=c1cc(N2CCOCC2)oc2c(-c3ccccc3)cccc12 | 94.2 |
| N#CCCc1ccc2c(c1)-c1[nH]c3ccc([N+](=O)[O-])cc3c1CC(=O)N2 | 93.3 |
| c1ccc(-c2cnc(Nc3ccc(OCCN4CCCC4)cc3)s2)cc1 | 92.5 |

Biological target: CDK7 CCNH MNAT1 (human) (UniProt P50613+P51948+P51946)
Test: as above
Details: compound 0.5 µM; ATP 10 µM

| SMILES | residual activity [%] |
| --- | --- |
| CCc1nc(-c2ccc(OC)cc2)[nH]c1-c1ccncc1 | 97.3 |
| O=c1cc(N2CCOCC2)oc2c(-c3ccccc3)cccc12 | 95.4 |
| c1ccc(-c2cnc(Nc3ccc(OCCN4CCCC4)cc3)s2)cc1 | 102 |

Biological target: CSNK1G3 (human) (UniProt Q9Y6M4)
Test: as above
Details: compound 0.5 µM; ATP 10 µM

CSNK1G3 (human), sequence (Q9Y6M4 whole entry, looked up): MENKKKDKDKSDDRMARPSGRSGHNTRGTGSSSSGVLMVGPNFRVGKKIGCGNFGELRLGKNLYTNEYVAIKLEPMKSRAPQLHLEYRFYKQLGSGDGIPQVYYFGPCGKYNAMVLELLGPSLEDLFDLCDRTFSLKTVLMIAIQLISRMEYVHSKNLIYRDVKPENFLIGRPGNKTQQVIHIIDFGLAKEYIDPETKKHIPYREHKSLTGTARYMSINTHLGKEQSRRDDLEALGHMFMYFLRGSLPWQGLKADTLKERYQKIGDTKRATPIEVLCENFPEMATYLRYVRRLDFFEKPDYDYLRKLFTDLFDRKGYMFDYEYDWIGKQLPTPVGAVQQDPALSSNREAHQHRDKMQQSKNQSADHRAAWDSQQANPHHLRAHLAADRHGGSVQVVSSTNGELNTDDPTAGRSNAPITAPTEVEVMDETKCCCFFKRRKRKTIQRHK

| SMILES | residual activity [%] |
| --- | --- |
| CCc1nc(-c2ccc(OC)cc2)[nH]c1-c1ccncc1 | 106 |
| O=c1cc(N2CCOCC2)oc2c(-c3ccccc3)cccc12 | 92.4 |
| N#CCCc1ccc2c(c1)-c1[nH]c3ccc([N+](=O)[O-])cc3c1CC(=O)N2 | 89.7 |
| c1ccc(-c2cnc(Nc3ccc(OCCN4CCCC4)cc3)s2)cc1 | 91.8 |

Biological target: MAPK3 (human) (UniProt P27361)
Test: as above
Details: compound 0.5 µM; ATP 10 µM

| SMILES | residual activity [%] |
| --- | --- |
| CCc1nc(-c2ccc(OC)cc2)[nH]c1-c1ccncc1 | 99.9 |
| O=c1cc(N2CCOCC2)oc2c(-c3ccccc3)cccc12 | 104 |
| N#CCCc1ccc2c(c1)-c1[nH]c3ccc([N+](=O)[O-])cc3c1CC(=O)N2 | 95.1 |
| c1ccc(-c2cnc(Nc3ccc(OCCN4CCCC4)cc3)s2)cc1 | 99.8 |

Biological target: ADRBK2 (human) (UniProt P35626)
Test: as above
Details: compound 0.5 µM; ATP 10 µM

| SMILES | residual activity [%] |
| --- | --- |
| CCc1nc(-c2ccc(OC)cc2)[nH]c1-c1ccncc1 | 98.4 |
| O=c1cc(N2CCOCC2)oc2c(-c3ccccc3)cccc12 | 99.8 |
| N#CCCc1ccc2c(c1)-c1[nH]c3ccc([N+](=O)[O-])cc3c1CC(=O)N2 | 97.1 |
| c1ccc(-c2cnc(Nc3ccc(OCCN4CCCC4)cc3)s2)cc1 | 103 |

Biological target: DYRK3 (human) (UniProt O43781)
Test: as above
Details: compound 0.5 µM; ATP 10 µM

| SMILES | residual activity [%] |
| --- | --- |
| CCc1nc(-c2ccc(OC)cc2)[nH]c1-c1ccncc1 | 95.5 |
| O=c1cc(N2CCOCC2)oc2c(-c3ccccc3)cccc12 | 100 |
| N#CCCc1ccc2c(c1)-c1[nH]c3ccc([N+](=O)[O-])cc3c1CC(=O)N2 | 97.6 |
| c1ccc(-c2cnc(Nc3ccc(OCCN4CCCC4)cc3)s2)cc1 | 106 |

Biological target: EPHA8 (human) (UniProt P29322)
Test: as above
Details: compound 0.5 µM; ATP 10 µM

EPHA8 (human), sequence (P29322 whole entry, looked up): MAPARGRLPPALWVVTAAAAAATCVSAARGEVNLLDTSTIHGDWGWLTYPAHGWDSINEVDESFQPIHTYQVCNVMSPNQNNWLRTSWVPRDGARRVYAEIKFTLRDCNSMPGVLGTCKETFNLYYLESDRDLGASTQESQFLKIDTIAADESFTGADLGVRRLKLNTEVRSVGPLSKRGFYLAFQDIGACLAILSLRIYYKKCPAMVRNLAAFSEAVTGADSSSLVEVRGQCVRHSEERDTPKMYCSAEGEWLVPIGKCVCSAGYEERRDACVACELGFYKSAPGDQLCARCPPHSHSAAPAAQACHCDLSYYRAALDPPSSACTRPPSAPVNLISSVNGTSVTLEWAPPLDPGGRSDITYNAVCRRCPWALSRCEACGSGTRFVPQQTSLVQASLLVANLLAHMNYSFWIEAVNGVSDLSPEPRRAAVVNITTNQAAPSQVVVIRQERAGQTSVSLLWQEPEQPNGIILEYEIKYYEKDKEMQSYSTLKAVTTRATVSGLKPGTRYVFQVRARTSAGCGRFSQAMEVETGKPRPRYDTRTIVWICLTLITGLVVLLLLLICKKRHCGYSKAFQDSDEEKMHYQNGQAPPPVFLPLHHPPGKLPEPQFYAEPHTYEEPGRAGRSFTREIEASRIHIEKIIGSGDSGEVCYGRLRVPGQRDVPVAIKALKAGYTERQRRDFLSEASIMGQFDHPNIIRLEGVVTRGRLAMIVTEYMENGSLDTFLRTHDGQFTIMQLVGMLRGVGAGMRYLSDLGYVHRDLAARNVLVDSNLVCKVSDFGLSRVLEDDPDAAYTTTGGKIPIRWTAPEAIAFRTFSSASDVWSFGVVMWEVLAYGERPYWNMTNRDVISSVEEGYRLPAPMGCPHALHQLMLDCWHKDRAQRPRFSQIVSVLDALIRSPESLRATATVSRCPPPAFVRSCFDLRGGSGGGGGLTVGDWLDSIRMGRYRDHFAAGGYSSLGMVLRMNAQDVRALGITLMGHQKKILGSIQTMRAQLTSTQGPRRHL

| SMILES | residual activity [%] |
| --- | --- |
| CCc1nc(-c2ccc(OC)cc2)[nH]c1-c1ccncc1 | 93.5 |
| O=c1cc(N2CCOCC2)oc2c(-c3ccccc3)cccc12 | 103 |
| N#CCCc1ccc2c(c1)-c1[nH]c3ccc([N+](=O)[O-])cc3c1CC(=O)N2 | 105 |
| c1ccc(-c2cnc(Nc3ccc(OCCN4CCCC4)cc3)s2)cc1 | 96.2 |

Biological target: NTRK1 (human) (UniProt P04629)
Test: as above
Details: compound 0.5 µM; ATP 10 µM

NTRK1 (human), sequence (P04629 whole entry, looked up): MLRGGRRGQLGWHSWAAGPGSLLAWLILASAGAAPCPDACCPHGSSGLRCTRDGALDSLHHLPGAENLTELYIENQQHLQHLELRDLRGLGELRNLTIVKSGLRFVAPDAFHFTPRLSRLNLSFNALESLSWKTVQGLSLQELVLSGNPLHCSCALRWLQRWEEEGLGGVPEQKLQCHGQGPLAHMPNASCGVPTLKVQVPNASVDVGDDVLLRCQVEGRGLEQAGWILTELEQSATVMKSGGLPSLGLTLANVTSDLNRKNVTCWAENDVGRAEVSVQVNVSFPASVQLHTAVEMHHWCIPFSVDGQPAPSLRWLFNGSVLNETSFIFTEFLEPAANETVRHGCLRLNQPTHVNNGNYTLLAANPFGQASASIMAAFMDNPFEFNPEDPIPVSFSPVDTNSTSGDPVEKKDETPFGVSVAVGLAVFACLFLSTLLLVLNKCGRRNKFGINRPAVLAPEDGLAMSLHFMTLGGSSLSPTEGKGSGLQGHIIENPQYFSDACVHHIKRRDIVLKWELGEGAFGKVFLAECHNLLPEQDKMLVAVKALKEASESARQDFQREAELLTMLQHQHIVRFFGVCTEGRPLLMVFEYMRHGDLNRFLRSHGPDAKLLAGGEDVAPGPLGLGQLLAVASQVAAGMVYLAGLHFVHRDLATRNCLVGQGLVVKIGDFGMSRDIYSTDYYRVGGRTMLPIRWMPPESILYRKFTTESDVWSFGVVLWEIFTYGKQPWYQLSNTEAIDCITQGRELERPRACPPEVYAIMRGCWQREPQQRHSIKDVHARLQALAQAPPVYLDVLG

| SMILES | residual activity [%] |
| --- | --- |
| CCc1nc(-c2ccc(OC)cc2)[nH]c1-c1ccncc1 | 106 |
| O=c1cc(N2CCOCC2)oc2c(-c3ccccc3)cccc12 | 95 |
| N#CCCc1ccc2c(c1)-c1[nH]c3ccc([N+](=O)[O-])cc3c1CC(=O)N2 | 115 |
| c1ccc(-c2cnc(Nc3ccc(OCCN4CCCC4)cc3)s2)cc1 | 54.1 |

Biological target: STK11 (human) (UniProt Q15831)
Test: as above
Details: compound 0.5 µM; ATP 10 µM

STK11 (human), sequence (Q15831 whole entry, looked up): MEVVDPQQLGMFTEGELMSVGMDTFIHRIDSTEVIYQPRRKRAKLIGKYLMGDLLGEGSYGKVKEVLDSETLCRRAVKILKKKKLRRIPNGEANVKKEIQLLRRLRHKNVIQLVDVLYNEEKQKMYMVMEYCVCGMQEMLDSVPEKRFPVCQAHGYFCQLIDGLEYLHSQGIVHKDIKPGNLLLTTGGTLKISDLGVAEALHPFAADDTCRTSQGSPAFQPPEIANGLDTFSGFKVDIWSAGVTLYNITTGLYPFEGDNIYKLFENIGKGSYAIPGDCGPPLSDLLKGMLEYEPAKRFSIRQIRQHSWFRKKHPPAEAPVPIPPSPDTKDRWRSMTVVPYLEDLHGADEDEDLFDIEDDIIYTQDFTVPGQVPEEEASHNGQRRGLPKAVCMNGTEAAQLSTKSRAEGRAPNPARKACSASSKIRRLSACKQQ

| SMILES | residual activity [%] |
| --- | --- |
| CCc1nc(-c2ccc(OC)cc2)[nH]c1-c1ccncc1 | 89.5 |
| O=c1cc(N2CCOCC2)oc2c(-c3ccccc3)cccc12 | 101 |
| c1ccc(-c2cnc(Nc3ccc(OCCN4CCCC4)cc3)s2)cc1 | 103 |

Biological target: CDK4 CCND3 (human) (UniProt P30281+P11802)
Test: as above
Details: compound 0.5 µM; ATP 10 µM

CDK4 CCND3 (human), sequence (P11802 whole entry, looked up): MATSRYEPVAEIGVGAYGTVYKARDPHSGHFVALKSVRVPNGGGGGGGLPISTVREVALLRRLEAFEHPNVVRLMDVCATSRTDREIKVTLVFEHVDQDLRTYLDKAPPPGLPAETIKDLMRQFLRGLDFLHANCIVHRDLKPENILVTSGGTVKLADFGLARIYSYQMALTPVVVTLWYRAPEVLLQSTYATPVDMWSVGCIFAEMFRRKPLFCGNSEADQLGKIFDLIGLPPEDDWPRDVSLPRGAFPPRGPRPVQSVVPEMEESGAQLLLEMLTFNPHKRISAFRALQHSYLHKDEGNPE
CDK4 CCND3 (human), sequence (P30281 whole entry, looked up): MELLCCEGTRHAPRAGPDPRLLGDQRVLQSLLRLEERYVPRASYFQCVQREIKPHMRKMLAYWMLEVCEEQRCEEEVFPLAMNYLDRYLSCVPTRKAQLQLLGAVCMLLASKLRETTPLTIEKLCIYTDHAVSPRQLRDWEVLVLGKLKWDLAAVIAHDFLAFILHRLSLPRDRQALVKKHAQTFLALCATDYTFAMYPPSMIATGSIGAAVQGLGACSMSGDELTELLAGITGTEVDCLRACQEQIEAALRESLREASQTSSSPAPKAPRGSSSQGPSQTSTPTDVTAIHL

| SMILES | residual activity [%] |
| --- | --- |
| CCc1nc(-c2ccc(OC)cc2)[nH]c1-c1ccncc1 | 105 |
| O=c1cc(N2CCOCC2)oc2c(-c3ccccc3)cccc12 | 96.2 |
| N#CCCc1ccc2c(c1)-c1[nH]c3ccc([N+](=O)[O-])cc3c1CC(=O)N2 | 25.9 |
| c1ccc(-c2cnc(Nc3ccc(OCCN4CCCC4)cc3)s2)cc1 | 84.9 |

Biological target: WEE1 (human) (UniProt P30291)
Test: as above
Details: compound 0.5 µM; ATP 10 µM

WEE1 (human), sequence (P30291 whole entry, looked up): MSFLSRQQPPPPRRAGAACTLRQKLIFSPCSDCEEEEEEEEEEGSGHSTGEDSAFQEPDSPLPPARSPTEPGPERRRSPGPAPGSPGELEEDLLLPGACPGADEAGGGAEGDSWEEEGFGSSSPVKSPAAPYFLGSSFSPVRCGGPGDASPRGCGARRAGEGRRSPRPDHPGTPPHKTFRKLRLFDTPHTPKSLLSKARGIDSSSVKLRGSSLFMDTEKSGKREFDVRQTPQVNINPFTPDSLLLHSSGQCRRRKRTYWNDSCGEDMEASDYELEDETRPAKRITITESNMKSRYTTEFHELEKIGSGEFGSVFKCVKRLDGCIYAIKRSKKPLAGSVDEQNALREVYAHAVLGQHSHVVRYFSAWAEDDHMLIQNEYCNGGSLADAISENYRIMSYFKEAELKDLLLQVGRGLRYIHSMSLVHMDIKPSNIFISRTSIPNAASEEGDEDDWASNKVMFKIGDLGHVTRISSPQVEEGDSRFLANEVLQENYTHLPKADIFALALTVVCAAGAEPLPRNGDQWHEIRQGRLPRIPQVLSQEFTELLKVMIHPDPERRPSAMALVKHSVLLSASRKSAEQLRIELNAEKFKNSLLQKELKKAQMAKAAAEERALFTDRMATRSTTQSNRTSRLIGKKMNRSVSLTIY

| SMILES | residual activity [%] |
| --- | --- |
| CCc1nc(-c2ccc(OC)cc2)[nH]c1-c1ccncc1 | 89.1 |
| O=c1cc(N2CCOCC2)oc2c(-c3ccccc3)cccc12 | 76.4 |
| N#CCCc1ccc2c(c1)-c1[nH]c3ccc([N+](=O)[O-])cc3c1CC(=O)N2 | 100 |
| c1ccc(-c2cnc(Nc3ccc(OCCN4CCCC4)cc3)s2)cc1 | 92 |

Biological target: BLK (human) (UniProt P51451)
Test: as above
Details: compound 0.5 µM; ATP 10 µM

| SMILES | residual activity [%] |
| --- | --- |
| CCc1nc(-c2ccc(OC)cc2)[nH]c1-c1ccncc1 | 105 |
| O=c1cc(N2CCOCC2)oc2c(-c3ccccc3)cccc12 | 120 |
| N#CCCc1ccc2c(c1)-c1[nH]c3ccc([N+](=O)[O-])cc3c1CC(=O)N2 | 78.8 |
| c1ccc(-c2cnc(Nc3ccc(OCCN4CCCC4)cc3)s2)cc1 | 92 |

Biological target: CSNK2A2 (human) (UniProt P19784)
Test: as above
Details: compound 0.5 µM; ATP 10 µM

| SMILES | residual activity [%] |
| --- | --- |
| CCc1nc(-c2ccc(OC)cc2)[nH]c1-c1ccncc1 | 95.3 |
| O=c1cc(N2CCOCC2)oc2c(-c3ccccc3)cccc12 | 93.9 |
| N#CCCc1ccc2c(c1)-c1[nH]c3ccc([N+](=O)[O-])cc3c1CC(=O)N2 | 92.9 |
| c1ccc(-c2cnc(Nc3ccc(OCCN4CCCC4)cc3)s2)cc1 | 92.1 |

Biological target: NTRK2 (human) (UniProt Q16620)
Test: as above
Details: compound 0.5 µM; ATP 10 µM

| SMILES | residual activity [%] |
| --- | --- |
| CCc1nc(-c2ccc(OC)cc2)[nH]c1-c1ccncc1 | 105 |
| O=c1cc(N2CCOCC2)oc2c(-c3ccccc3)cccc12 | 112 |
| N#CCCc1ccc2c(c1)-c1[nH]c3ccc([N+](=O)[O-])cc3c1CC(=O)N2 | 86.4 |
| c1ccc(-c2cnc(Nc3ccc(OCCN4CCCC4)cc3)s2)cc1 | 50.4 |

Biological target: CAMK1D (human) (UniProt Q8IU85)
Test: as above
Details: compound 0.5 µM; ATP 10 µM

| SMILES | residual activity [%] |
| --- | --- |
| CCc1nc(-c2ccc(OC)cc2)[nH]c1-c1ccncc1 | 104 |
| O=c1cc(N2CCOCC2)oc2c(-c3ccccc3)cccc12 | 47.9 |
| N#CCCc1ccc2c(c1)-c1[nH]c3ccc([N+](=O)[O-])cc3c1CC(=O)N2 | 91.8 |
| c1ccc(-c2cnc(Nc3ccc(OCCN4CCCC4)cc3)s2)cc1 | 101 |

Biological target: NEK6 (human) (UniProt Q9HC98)
Test: as above
Details: compound 0.5 µM; ATP 10 µM

NEK6 (human), sequence (Q9HC98 whole entry, looked up): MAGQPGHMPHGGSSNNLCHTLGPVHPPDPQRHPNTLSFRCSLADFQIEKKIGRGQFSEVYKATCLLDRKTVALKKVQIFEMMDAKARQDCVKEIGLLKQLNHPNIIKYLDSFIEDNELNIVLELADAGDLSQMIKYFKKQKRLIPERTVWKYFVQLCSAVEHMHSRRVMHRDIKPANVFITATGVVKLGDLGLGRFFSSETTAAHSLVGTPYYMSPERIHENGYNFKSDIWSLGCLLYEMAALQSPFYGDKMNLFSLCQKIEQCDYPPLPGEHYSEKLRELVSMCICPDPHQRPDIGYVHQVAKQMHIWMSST

| SMILES | residual activity [%] |
| --- | --- |
| CCc1nc(-c2ccc(OC)cc2)[nH]c1-c1ccncc1 | 95.3 |
| O=c1cc(N2CCOCC2)oc2c(-c3ccccc3)cccc12 | 112 |
| N#CCCc1ccc2c(c1)-c1[nH]c3ccc([N+](=O)[O-])cc3c1CC(=O)N2 | 101 |
| c1ccc(-c2cnc(Nc3ccc(OCCN4CCCC4)cc3)s2)cc1 | 102 |

Biological target: MARK4 (human) (UniProt Q96L34)
Test: as above
Details: compound 0.5 µM; ATP 10 µM

| SMILES | residual activity [%] |
| --- | --- |
| CCc1nc(-c2ccc(OC)cc2)[nH]c1-c1ccncc1 | 96.4 |
| O=c1cc(N2CCOCC2)oc2c(-c3ccccc3)cccc12 | 91.4 |
| N#CCCc1ccc2c(c1)-c1[nH]c3ccc([N+](=O)[O-])cc3c1CC(=O)N2 | 62.5 |
| c1ccc(-c2cnc(Nc3ccc(OCCN4CCCC4)cc3)s2)cc1 | 58.9 |

Biological target: SRC (human) (UniProt P12931)
Test: as above
Details: compound 0.5 µM; ATP 10 µM

| SMILES | residual activity [%] |
| --- | --- |
| CCc1nc(-c2ccc(OC)cc2)[nH]c1-c1ccncc1 | 95.3 |
| O=c1cc(N2CCOCC2)oc2c(-c3ccccc3)cccc12 | 96.3 |
| N#CCCc1ccc2c(c1)-c1[nH]c3ccc([N+](=O)[O-])cc3c1CC(=O)N2 | 30.8 |
| c1ccc(-c2cnc(Nc3ccc(OCCN4CCCC4)cc3)s2)cc1 | 75.3 |

Biological target: GRK6 (human) (UniProt P43250)
Test: as above
Details: compound 0.5 µM; ATP 10 µM

| SMILES | residual activity [%] |
| --- | --- |
| O=c1cc(N2CCOCC2)oc2c(-c3ccccc3)cccc12 | 93 |
| N#CCCc1ccc2c(c1)-c1[nH]c3ccc([N+](=O)[O-])cc3c1CC(=O)N2 | 91.5 |
| c1ccc(-c2cnc(Nc3ccc(OCCN4CCCC4)cc3)s2)cc1 | 96.1 |
